The values that follow come from patent US20240158446A1, “CYCLIC COMPOUND HAVING SELECTIVE INHIBITORY ACTION ON KRAS OVER HRAS AND NRAS” (CHUGAI SEIYAKU KABUSHIKI KAISHA, priority 2021, published 2024).

For assay [1], the target named is GDP-bound KRAS wild-type protein (Homo sapiens, UniProt P01116). Description: Binding to KRAS by surface plasmon resonance (SPR), Single Cycle Kinetics. Conditions: SPR Single Cycle Kinetics, GDP-bound KRAS wild-type protein, 1:1 binding model; read-out: KRAS KD. For orientation: Surface plasmon resonance follows binding to a sensor surface in real time, without labels.
Sequence of GDP-bound KRAS wild-type protein (P01116 whole entry): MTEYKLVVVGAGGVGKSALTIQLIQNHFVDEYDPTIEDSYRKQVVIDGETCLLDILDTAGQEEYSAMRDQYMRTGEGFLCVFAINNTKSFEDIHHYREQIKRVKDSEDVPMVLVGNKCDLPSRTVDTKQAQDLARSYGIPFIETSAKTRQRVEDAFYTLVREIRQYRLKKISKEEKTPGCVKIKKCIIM

Assay [2] has as its target GDP-bound NRAS wild-type protein (Homo sapiens, UniProt P01111). Description: Binding to NRAS by surface plasmon resonance (SPR), Single Cycle Kinetics. The conditions noted are these: SPR, GDP-bound NRAS wild-type protein vs GDP-bound KRAS wild-type protein.
Assay [3] has as its target GDP-bound HRAS wild-type protein (Homo sapiens, UniProt P01112). Description: Binding to HRAS by surface plasmon resonance (SPR), Single Cycle Kinetics. The conditions noted are these: SPR, GDP-bound HRAS wild-type protein vs GDP-bound KRAS wild-type protein.

Where a SMILES comes first, the peptide text is derived from it. Bridges are numbered along the chain shown (N, C = ends). [ ]: non-standard residue; d: D form. The star is where a group is joined. hPhe(3-Cl-4-CF3) = N[C@@H](CCc1ccc(C(F)(F)F)c(Cl)c1)C(=O)O; NPrPhe(4-CF3) = CCCN[C@@H](Cc1ccc(C(F)(F)F)cc1)C(=O)O; NMeGly(cPent) = CN[C@H](C(=O)O)C1CCCC1; Pro(4,4-F2) = O=C(O)[C@@H]1CC(F)(F)CN1; Hyp = O=C(O)[C@@H]1C[C@@H](O)CN1; NMeD = CN[C@@H](CC(=O)O)C(=O)O; NMeL = CN[C@@H](CC(C)C)C(=O)O; Morpholide = C1CN(*)CCO1; NMeA = CN[C@@H](C)C(=O)O; Ac5c = NC1(C(=O)O)CCCC1; Aze = O=C(O)[C@@H]1CCN1; Ac4c = NC1(C(=O)O)CCC1; Sar = CNCC(=O)O

Sequence of GDP-bound NRAS wild-type protein (P01111 whole entry): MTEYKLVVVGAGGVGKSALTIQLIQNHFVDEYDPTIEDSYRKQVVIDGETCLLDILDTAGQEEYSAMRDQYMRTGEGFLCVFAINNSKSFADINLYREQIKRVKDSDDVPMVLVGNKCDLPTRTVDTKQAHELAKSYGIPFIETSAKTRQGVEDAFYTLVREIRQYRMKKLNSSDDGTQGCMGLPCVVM
Sequence of GDP-bound HRAS wild-type protein (P01112 whole entry): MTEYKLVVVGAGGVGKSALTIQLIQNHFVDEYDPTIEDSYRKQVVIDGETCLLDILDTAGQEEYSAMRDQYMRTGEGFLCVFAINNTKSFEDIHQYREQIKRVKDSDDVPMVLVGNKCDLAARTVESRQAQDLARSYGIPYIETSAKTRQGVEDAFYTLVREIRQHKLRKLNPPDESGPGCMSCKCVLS

On to `CCCN1C(=O)[C@@H]2CCN2C(=O)[C@H](C)N(C)C(=O)[C@H]([C@@H](C)CC)NC(=O)[C@H](CC(C)C)N(C)C(=O)C[C@@H](C(=O)N2CCOCC2)N(C)C(=O)[C@H](C2CCCC2)N(C)C(=O)C2(CCC2)NC(=O)[C@@H]2C[C@@H](OCC)CN2C(=O)[C@H](CCc2ccc(C(F)(F)F)c(Cl)c2)NC(=O)CN(C)C(=O)[C@@H]1Cc1ccc(C(F)(F)F)cc1` [PP0406] ([NMeL]I[NMeA][Aze][NPrPhe(4-CF3)][Sar][hPhe(3-Cl-4-CF3)][Hyp](Et)[Ac4c][NMeGly(cPent)][NMeD]-Morpholide; lactam N-11), for which, in assay [1], the Kd (in general, the constant that tells how readily two partners part at equilibrium) was 0.042 nM. In addition, in assay [2], the “NRAS/KRAS (ratio of KD value for NRAS to KD value for KRAS)” value is “C (A compound having a KD ratio of 0.1 or more and less than 3 is denoted as C)”. For the same molecule, in assay [3], the “HRAS/KRAS (ratio of KD value for HRAS to KD value for KRAS)” value is “B (a compound having 3 or more and less than 10 is denoted as B)”.
For the molecule `CCCN1C(=O)[C@@H]2CCN2C(=O)CN(C)C(=O)[C@H]([C@@H](C)CC)NC(=O)[C@H](CC(C)C)N(C)C(=O)C[C@@H](C(=O)N2CCOCC2)N(C)C(=O)[C@H](C2CCCC2)N(C)C(=O)C2(CCCC2)NC(=O)[C@@H]2CC(F)(F)CN2C(=O)[C@H](CCc2ccc(C(F)(F)F)c(Cl)c2)NC(=O)CN(C)C(=O)[C@@H]1Cc1ccc(C(F)(F)F)cc1` [PP0408] ([NMeL]I[Sar][Aze][NPrPhe(4-CF3)][Sar][hPhe(3-Cl-4-CF3)][Pro(4,4-F2)][Ac5c][NMeGly(cPent)][NMeD]-Morpholide; lactam N-11), the Kd in assay [1] was 0.094 nM. In addition, in assay [2], the “NRAS/KRAS (ratio of KD value for NRAS to KD value for KRAS)” value was “C (A compound having a KD ratio of 0.1 or more and less than 3 is denoted as C)”. The “HRAS/KRAS (ratio of KD value for HRAS to KD value for KRAS)” value in assay [3] is “B (a compound having 3 or more and less than 10 is denoted as B)”.
For `CCCN1C(=O)[C@@H]2CCN2C(=O)CN(C)C(=O)[C@H]([C@@H](C)CC)NC(=O)[C@H](CC(C)C)N(C)C(=O)C[C@@H](C(=O)N2CCOCC2)N(C)C(=O)[C@H](C2CCCC2)N(C)C(=O)C2(CCC2)NC(=O)[C@@H]2CC(F)(F)CN2C(=O)[C@H](CCc2ccc(C(F)(F)F)c(Cl)c2)NC(=O)CN(C)C(=O)[C@@H]1Cc1ccc(C(F)(F)F)cc1` [PP0409] ([NMeL]I[Sar][Aze][NPrPhe(4-CF3)][Sar][hPhe(3-Cl-4-CF3)][Pro(4,4-F2)][Ac4c][NMeGly(cPent)][NMeD]-Morpholide; lactam N-11), the Kd in assay [1] was found to be 0.056 nM. Besides, in assay [2], the “NRAS/KRAS (ratio of KD value with respect to NRAS to KD value with respect to KRAS)” value was “C (A compound having a KD ratio of 0.1 or more and less than 3 is denoted as C)”. Further, the “HRAS/KRAS (ratio of KD value with respect to HRAS to KD value with respect to KRAS)” value in assay [3] was “C (A compound having a KD ratio of 0.1 or more and less than 3 is denoted as C)”.
With `CCCN1C(=O)[C@@H]2CCN2C(=O)CN(C)C(=O)[C@H]([C@@H](C)CC)NC(=O)[C@H](CC(C)C)N(C)C(=O)C[C@@H](C(=O)N2CCOCC2)N(C)C(=O)[C@H](C2CCCC2)N(C)C(=O)C2(CCCC2)NC(=O)[C@@H]2C[C@@H](OCC)CN2C(=O)[C@H](CCc2ccc(C(F)(F)F)c(Cl)c2)NC(=O)CN(C)C(=O)[C@@H]1Cc1ccc(C(F)(F)F)cc1` [PP0410] ([NMeL]I[Sar][Aze][NPrPhe(4-CF3)][Sar][hPhe(3-Cl-4-CF3)][Hyp](Et)[Ac5c][NMeGly(cPent)][NMeD]-Morpholide; lactam N-11), the Kd in assay [1] was found to be 0.058 nM. In addition, the “NRAS/KRAS (ratio of KD value with respect to NRAS to KD value with respect to KRAS)” value in assay [2] is “C (A compound having a KD ratio of 0.1 or more and less than 3 is denoted as C)”. In addition, in assay [3], the “HRAS/KRAS (ratio of KD value with respect to HRAS to KD value with respect to KRAS)” value was “B (a compound having 3 or more and less than 10 is denoted as B)”.
With `CCCN1C(=O)[C@@H]2CCN2C(=O)CN(C)C(=O)[C@H]([C@@H](C)CC)NC(=O)[C@H](CC(C)C)N(C)C(=O)C[C@@H](C(=O)N2CCOCC2)N(C)C(=O)[C@H](C2CCCC2)N(C)C(=O)C2(CCC2)NC(=O)[C@@H]2C[C@@H](OCC)CN2C(=O)[C@H](CCc2ccc(C(F)(F)F)c(Cl)c2)NC(=O)CN(C)C(=O)[C@@H]1Cc1ccc(C(F)(F)F)cc1` [PP0411] ([NMeL]I[Sar][Aze][NPrPhe(4-CF3)][Sar][hPhe(3-Cl-4-CF3)][Hyp](Et)[Ac4c][NMeGly(cPent)][NMeD]-Morpholide; lactam N-11), the Kd in assay [1] stood at 0.046 nM. Besides, the “NRAS/KRAS (ratio of KD value with respect to NRAS to KD value with respect to KRAS)” value in assay [2] is “C (A compound having a KD ratio of 0.1 or more and less than 3 is denoted as C)”. The “HRAS/KRAS (ratio of KD value with respect to HRAS to KD value with respect to KRAS)” value in assay [3] was “C (A compound having a KD ratio of 0.1 or more and less than 3 is denoted as C)”.
In the case of `CCCN1C(=O)CN(C)C(=O)CN(C)C(=O)[C@H]([C@@H](C)CC)NC(=O)[C@H](CC(C)C)N(C)C(=O)C[C@@H](C(=O)N(C)C)N(C)C(=O)[C@H](C2CCCC2)N(C)C(=O)C2(CCC2)NC(=O)[C@@H]2CCCN2C(=O)[C@H](CCc2ccc(C(F)(F)F)c(Cl)c2)NC(=O)CN(C)C(=O)[C@@H]1Cc1ccc(C(F)(F)F)cc1` [PP0412] ([NMeL]I[Sar][Sar][NPrPhe(4-CF3)][Sar][hPhe(3-Cl-4-CF3)]P[Ac4c][NMeGly(cPent)][NMeD]-NMe2; lactam N-11), in assay [1], the Kd stood at 0.043 nM. Also, the “NRAS/KRAS (ratio of KD value with respect to NRAS to KD value with respect to KRAS)” value in assay [2] is “B (a compound having 3 or more and less than 10 is denoted as B)”. The “HRAS/KRAS (ratio of KD value with respect to HRAS to KD value with respect to KRAS)” value in assay [3] is “C (A compound having a KD ratio of 0.1 or more and less than 3 is denoted as C)”.
For `CCCN1C(=O)CN(C)C(=O)CN(C)C(=O)[C@H]([C@@H](C)CC)NC(=O)[C@H](CC(C)C)N(C)C(=O)C[C@@H](C(=O)N(C)C)N(C)C(=O)[C@H](C2CCCC2)N(C)C(=O)C2(CCCC2)NC(=O)[C@@H]2CC(F)(F)CN2C(=O)[C@H](CCc2ccc(C(F)(F)F)c(Cl)c2)NC(=O)CN(C)C(=O)[C@@H]1Cc1ccc(C(F)(F)F)cc1` [PP0413] ([NMeL]I[Sar][Sar][NPrPhe(4-CF3)][Sar][hPhe(3-Cl-4-CF3)][Pro(4,4-F2)][Ac5c][NMeGly(cPent)][NMeD]-NMe2; lactam N-11), the Kd in assay [1] came to 0.049 nM. Besides, the “NRAS/KRAS (ratio of KD value with respect to NRAS to KD value with respect to KRAS)” value in assay [2] was “C (A compound having a KD ratio of 0.1 or more and less than 3 is denoted as C)”. In addition, the “HRAS/KRAS (ratio of KD value with respect to HRAS to KD value with respect to KRAS)” value in assay [3] was “C (A compound having a KD ratio of 0.1 or more and less than 3 is denoted as C)”.
`CCCN1C(=O)CN(C)C(=O)CN(C)C(=O)[C@H]([C@@H](C)CC)NC(=O)[C@H](CC(C)C)N(C)C(=O)C[C@@H](C(=O)N(C)C)N(C)C(=O)[C@H](C2CCCC2)N(C)C(=O)C2(CCC2)NC(=O)[C@@H]2CC(F)(F)CN2C(=O)[C@H](CCc2ccc(C(F)(F)F)c(Cl)c2)NC(=O)CN(C)C(=O)[C@@H]1Cc1ccc(C(F)(F)F)cc1` [PP0414] ([NMeL]I[Sar][Sar][NPrPhe(4-CF3)][Sar][hPhe(3-Cl-4-CF3)][Pro(4,4-F2)][Ac4c][NMeGly(cPent)][NMeD]-NMe2; lactam N-11): in assay [1], the Kd was found to be 0.029 nM. For the same molecule, the “NRAS/KRAS (ratio of KD value with respect to NRAS to KD value with respect to KRAS)” value in assay [2] is “B (a compound having 3 or more and less than 10 is denoted as B)”. In addition, in assay [3], the “HRAS/KRAS (ratio of KD value with respect to HRAS to KD value with respect to KRAS)” value was “C (A compound having a KD ratio of 0.1 or more and less than 3 is denoted as C)”.
